Converted amounts (≈) assume the structure as drawn. Like-named read-outs stand apart in the source and are kept apart here.
Tests used:
Assay type in all cases: cell-based
[1] = test system: spores of ATCC BBA1870 strain; experiment: Inhibition of germination of C. difficile spores (MIC), strain ATCC BBA1870; conditions: Clostridioides difficile, ATCCBBA1870STRAIN, 1 h, read-out: MIC (minimum concentration that completely inhibits spore germination)
Summary of the method: (§1)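 Spores heat-activated for 30 min at 65° C and washed, then preincubated with compound (10 mM DMSO stock) in BHIS at 37° C. Germination was triggered with sodium taurocholate, and OD580 was read each minute for 60 min. Inhibition = 100% − germination rate, from final vs initial OD relative to germinant-only controls.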

[2] = test system: spores of ATCC 43255 strain; experiment: Inhibition of germination of C. difficile spores (MIC), strain ATCC 43255; conditions: Clostridioides difficile, ATCC43255, 1 h, read-out: MIC (minimum concentration that completely inhibits spore germination)
Summary of the method: as §1

[3] = test system: spores of ATCC 630 strain; experiment: Inhibition of germination of C. difficile spores (MIC), strain ATCC 630; conditions: Clostridioides difficile, ATCC630, 1 h, read-out: MIC (minimum concentration that completely inhibits spore germination)
Summary of the method: as §1

[4] = strain 1870, sodium taurocholate as germinant, BHIS medium, 37° C., OD580 for 60 min
[5] = strain 43255, sodium taurocholate as germinant, BHIS medium, 37° C., OD580 for 60 min
[6] = strain 630, sodium taurocholate as germinant, BHIS medium, 37° C., OD580 for 60 min

Row | Structure (SMILES) | MIC [1, 4] [µM] | MIC [2, 5] [µM] | MIC [3, 6] [µM] | MIC [1] [µM] | MIC [2] [µM] | MIC [3] [µM]
1 | CC[C@@H](NC(=O)C[C@@H](C)[C@H]1CC[C@H]2[C@@H]3C(=O)C[C@@H]4CC(=O)CC[C@]4(C)[C@H]3CC[C@]12C)c1ccc(C(C)=O)s1 [Compound I-201] | 32 (≈ 17.3 µg/mL) | 32 (≈ 17.3 µg/mL) | 32 (≈ 17.3 µg/mL) | – | – | –
2 | CC(=O)c1ccc([C@H](NC(=O)C[C@@H](C)[C@H]2CC[C@H]3[C@@H]4C(=O)C[C@@H]5CC(=O)CC[C@]5(C)[C@H]4CC[C@]23C)C(C)C)s1 [Compound I-202] | 32 (≈ 17.7 µg/mL) | 32 (≈ 17.7 µg/mL) | 32 (≈ 17.7 µg/mL) | – | – | –
3 | CC[C@@H](NC(=O)C[C@@H](C)[C@H]1CC[C@H]2[C@@H]3C(=O)C[C@@H]4CC(=O)CC[C@]4(C)[C@H]3CC[C@]12C)c1ccc(N(C)C)s1 [Compound I-203] | – | – | – | 32 (≈ 17.3 µg/mL) | 32 (≈ 17.3 µg/mL) | 16 (≈ 8.65 µg/mL)
4 | CC(C)[C@@H](NC(=O)C[C@@H](C)[C@H]1CC[C@H]2[C@@H]3C(=O)C[C@@H]4CC(=O)CC[C@]4(C)[C@H]3CC[C@]12C)c1ccc(N(C)C)s1 [Compound I-204] | – | – | – | 32 (≈ 17.8 µg/mL) | 32 (≈ 17.8 µg/mL) | 32 (≈ 17.8 µg/mL)
5 | CC[C@@H](NC(=O)C[C@@H](C)[C@H]1CC[C@H]2[C@@H]3C(=O)C[C@@H]4CC(=O)CC[C@]4(C)[C@H]3CC[C@]12C)c1ccc(C(=O)CCCCCCC(=O)O)s1 [Compound I-205] | 128 (≈ 83.7 µg/mL) | 128 (≈ 83.7 µg/mL) | 128 (≈ 83.7 µg/mL) | – | – | –
6 | CC(C)[C@@H](NC(=O)C[C@@H](C)[C@H]1CC[C@H]2[C@@H]3C(=O)C[C@@H]4CC(=O)CC[C@]4(C)[C@H]3CC[C@]12C)c1ccc(C(=O)CCCCCCC(=O)O)s1 [Compound I-206] | 256 (≈ 171 µg/mL) | 128 (≈ 85.5 µg/mL) | 128 (≈ 85.5 µg/mL) | – | – | –
7 | CC[C@@H](NC(=O)C[C@@H](C)[C@H]1CC[C@H]2[C@@H]3[C@H](OC(C)=O)CC4=CC(=O)CC[C@]4(C)[C@H]3CC[C@]12C)c1ccc(Br)s1 [I-155 -1] | 0.25 (≈ 0.155 µg/mL) | 0.25 (≈ 0.155 µg/mL) | 0.25 (≈ 0.155 µg/mL) | – | – | –
8 | CC(=O)O[C@@H]1CC2=CC(=O)CC[C@]2(C)[C@H]2CC[C@]3(C)[C@@H]([C@H](C)CC(=O)N[C@@H](c4ccc(Br)s4)C(C)C)CC[C@H]3[C@H]12 [I-156 -1] | 0.5 (≈ 0.316 µg/mL) | 0.5 (≈ 0.316 µg/mL) | 0.5 (≈ 0.316 µg/mL) | – | – | –
9 | CC[C@@H](NC(=O)C[C@@H](C)[C@H]1CC[C@H]2[C@@H]3[C@H](OC(C)=O)CC4=CC(=O)CC[C@]4(C)[C@H]3CC[C@]12C)c1ccc(Cl)s1 [I-157 -1] | 0.5 (≈ 0.287 µg/mL) | 0.5 (≈ 0.287 µg/mL) | 0.25 (≈ 0.144 µg/mL) | – | – | –
10 | CC(=O)O[C@@H]1CC2=CC(=O)CC[C@]2(C)[C@H]2CC[C@]3(C)[C@@H]([C@H](C)CC(=O)N[C@@H](c4ccc(Cl)s4)C(C)C)CC[C@H]3[C@H]12 [I-158 -1] | 0.5 (≈ 0.294 µg/mL) | 0.5 (≈ 0.294 µg/mL) | 0.5 (≈ 0.294 µg/mL) | – | – | –
11 | CC[C@@H](NC(=O)C[C@@H](C)[C@H]1CC[C@H]2[C@@H]3[C@H](OC(C)=O)CC4=CC(=O)C=C[C@]4(C)[C@H]3CC[C@]12C)c1ccc(Br)s1 [I-159 -1] | 0.5 (≈ 0.308 µg/mL) | 0.5 (≈ 0.308 µg/mL) | 0.5 (≈ 0.308 µg/mL) | – | – | –
12 | CC(=O)O[C@@H]1CC2=CC(=O)C=C[C@]2(C)[C@H]2CC[C@]3(C)[C@@H]([C@H](C)CC(=O)N[C@@H](c4ccc(Br)s4)C(C)C)CC[C@H]3[C@H]12 [I-160 -1] | 0.5 (≈ 0.315 µg/mL) | 0.5 (≈ 0.315 µg/mL) | 0.5 (≈ 0.315 µg/mL) | – | – | –
13 | CC[C@@H](NC(=O)C[C@@H](C)[C@H]1CC[C@H]2[C@@H]3[C@H](OC(C)=O)CC4=CC(=O)C=C[C@]4(C)[C@H]3CC[C@]12C)c1ccc(Cl)s1 [I-161 -1] | 0.5 (≈ 0.286 µg/mL) | 0.5 (≈ 0.286 µg/mL) | 0.25 (≈ 0.143 µg/mL) | – | – | –
14 | CC(=O)O[C@@H]1CC2=CC(=O)C=C[C@]2(C)[C@H]2CC[C@]3(C)[C@@H]([C@H](C)CC(=O)N[C@@H](c4ccc(Cl)s4)C(C)C)CC[C@H]3[C@H]12 [I-162 -1] | 0.25 (≈ 0.147 µg/mL) | 0.5 (≈ 0.293 µg/mL) | 0.5 (≈ 0.293 µg/mL) | – | – | –

— patent US20230135729A1, “COMPOUND WITH ANTI-SPORE ACTIVITY AND PHARMACEUTICAL COMPOSITION THEREOF” (priority 2020, published 2023)
